± gives the uncertainty stated by the source.
Assay: xn = mol fraction of the nth substance listed

Cc1cc(C)cc(C)c1 + C1CCCCC1
viscosity [mPa·s], 101 kPa
Conditions	303 K	303.15 K	308.15 K	313 K	313.15 K	318.15 K	323 K	323.15 K
x1 = 0.1001	–	0.7294 ± 0.0076	0.6779 ± 0.0073	–	0.6321 ± 0.0071	0.591 ± 0.0069	–	0.5529 ± 0.0067
x1 = 0.1028	0.7231 ± 0.0051	–	–	0.6296 ± 0.0045	–	–	0.5473 ± 0.004	–
x1 = 0.2001	–	0.6775 ± 0.0073	0.6326 ± 0.0071	–	0.5925 ± 0.0069	0.5562 ± 0.0067	–	0.5229 ± 0.0066
x1 = 0.2002	0.6616 ± 0.0048	–	–	0.5833 ± 0.0043	–	–	0.518 ± 0.0039	–
x1 = 0.299	0.6393 ± 0.0047	–	–	0.5651 ± 0.0042	–	–	0.5048 ± 0.0039	–
x1 = 0.3	–	0.6444 ± 0.0072	0.6039 ± 0.0069	–	0.5675 ± 0.0068	0.5341 ± 0.0066	–	0.5036 ± 0.0065
x1 = 0.396	0.6187 ± 0.0047	–	–	0.5553 ± 0.0042	–	–	0.4899 ± 0.0038	–
x1 = 0.4	–	0.6263 ± 0.0071	0.5881 ± 0.0069	–	0.5539 ± 0.0067	0.5231 ± 0.0066	–	0.4941 ± 0.0064
x1 = 0.4961	0.6085 ± 0.0047	–	–	0.5439 ± 0.0042	–	–	0.4892 ± 0.0039	–
x1 = 0.5	–	0.6163 ± 0.007	0.5791 ± 0.0068	–	0.5465 ± 0.0067	0.5165 ± 0.0065	–	0.4886 ± 0.0064
x1 = 0.5971	0.6054 ± 0.0047	–	–	0.54 ± 0.0043	–	–	0.4863 ± 0.0039	–
x1 = 0.6	–	0.6104 ± 0.007	0.5748 ± 0.0068	–	0.5431 ± 0.0066	0.5143 ± 0.0065	–	0.4873 ± 0.0064
x1 = 0.699	0.6015 ± 0.0048	–	–	0.5379 ± 0.0043	–	–	0.4853 ± 0.004	–
x1 = 0.7	–	0.6099 ± 0.007	0.5746 ± 0.0068	–	0.5428 ± 0.0066	0.514 ± 0.0065	–	0.4871 ± 0.0064
x1 = 0.7992	0.6055 ± 0.0049	–	–	0.543 ± 0.0044	–	–	0.4858 ± 0.004	–
x1 = 0.8001	–	0.6119 ± 0.007	0.5767 ± 0.0068	–	0.5451 ± 0.0067	0.5165 ± 0.0065	–	0.4904 ± 0.0064
x1 = 0.8983	0.6081 ± 0.005	–	–	0.543 ± 0.0045	–	–	0.4893 ± 0.0041	–
x1 = 0.9	–	0.6162 ± 0.007	0.5819 ± 0.0068	–	0.551 ± 0.0067	0.5223 ± 0.0066	–	0.494 ± 0.0064

Cc1cc(C)cc(C)c1 + C1CCOC1
298.15 K, 101 kPa
Conditions	viscosity [mPa·s]
x2 = 0.0735	0.5973 ± 0.01
x2 = 0.1513	0.5921 ± 0.01
x2 = 0.2274	0.5863 ± 0.01
x2 = 0.2986	0.5793 ± 0.01
x2 = 0.3672	0.5728 ± 0.01
x2 = 0.4305	0.5659 ± 0.0099
x2 = 0.4912	0.5568 ± 0.0098
x2 = 0.6055	0.5353 ± 0.0094
x2 = 0.6784	0.5237 ± 0.0092
x2 = 0.7516	0.512 ± 0.009
x2 = 0.828	0.4999 ± 0.0088
x2 = 0.879	0.4857 ± 0.0086
x2 = 0.9412	0.4724 ± 0.0083

Cc1cc(C)cc(C)c1 + CC(C)=O
307.35 K, 101.33 kPa
Conditions	viscosity [mPa·s]
x2 = 0.1387	0.541 ± 0.0096
x2 = 0.4493	0.447 ± 0.0088
x2 = 0.5975	0.403 ± 0.0084
x2 = 0.6567	0.383 ± 0.0083
x2 = 0.7521	0.362 ± 0.0081
x2 = 0.9168	0.313 ± 0.0077

O=S=O + CC(C)=O
298.15 K, 101 kPa
Conditions	viscosity [mPa·s]
x1 = 0.04866	0.3122 ± 0.0083
x1 = 0.1662	0.3313 ± 0.0088
x1 = 0.2057	0.3365 ± 0.0089
x1 = 0.2466	0.3415 ± 0.009
x1 = 0.2858	0.343 ± 0.0091
x1 = 0.4007	0.3471 ± 0.0092

O=C1CCCN1 + CC(C)CO
Conditions	viscosity [mPa·s]
303.15 K, 101 kPa, x1 = 0.9753	10.15 ± 0.76

O=C1CCCN1 + CC(O)CO
Conditions	viscosity [mPa·s]
298.15 K, 101.33 kPa, x1 = 0.06223	38.56 ± 0.81
298.15 K, 101.33 kPa, x1 = 0.09322	36.35 ± 0.75
298.15 K, 101.33 kPa, x1 = 0.1974	30.23 ± 0.63
298.15 K, 101.33 kPa, x1 = 0.2925	26.21 ± 0.55
298.15 K, 101.33 kPa, x1 = 0.3956	23.01 ± 0.49
298.15 K, 101.33 kPa, x1 = 0.5612	19.49 ± 0.43
298.15 K, 101.33 kPa, x1 = 0.5963	18.87 ± 0.4
298.15 K, 101.33 kPa, x1 = 0.7003	17.36 ± 0.36
298.15 K, 101.33 kPa, x1 = 0.7843	16.26 ± 0.34
298.15 K, 101.33 kPa, x1 = 0.8992	14.8 ± 0.31
298.15 K, 101.33 kPa, x1 = 0.9581	13.93 ± 0.29
308.15 K, 101.33 kPa, x1 = 0.05382	23.04 ± 0.48
308.15 K, 101.33 kPa, x1 = 0.1106	20.74 ± 0.43
308.15 K, 101.33 kPa, x1 = 0.1986	18.2 ± 0.38
308.15 K, 101.33 kPa, x1 = 0.3058	15.92 ± 0.33
308.15 K, 101.33 kPa, x1 = 0.3989	14.45 ± 0.31
308.15 K, 101.33 kPa, x1 = 0.512	12.98 ± 0.27
308.15 K, 101.33 kPa, x1 = 0.5975	12.23 ± 0.26
308.15 K, 101.33 kPa, x1 = 0.6998	11.39 ± 0.24
308.15 K, 101.33 kPa, x1 = 0.8034	10.71 ± 0.22
308.15 K, 101.33 kPa, x1 = 0.8984	9.939 ± 0.21
308.15 K, 101.33 kPa, x1 = 0.957	9.465 ± 0.2
313.15 K, 101 kPa, x1 = 0.0803	16.98 ± 0.15
313.15 K, 101 kPa, x1 = 0.1596	15.07 ± 0.13
313.15 K, 101 kPa, x1 = 0.2403	13.58 ± 0.11
313.15 K, 101 kPa, x1 = 0.3201	12.41 ± 0.1
313.15 K, 101 kPa, x1 = 0.4011	11.51 ± 0.093
313.15 K, 101 kPa, x1 = 0.481	10.79 ± 0.087
313.15 K, 101 kPa, x1 = 0.5617	10.17 ± 0.082
313.15 K, 101 kPa, x1 = 0.6394	9.657 ± 0.077
313.15 K, 101 kPa, x1 = 0.7192	9.2 ± 0.073
313.15 K, 101 kPa, x1 = 0.7993	8.742 ± 0.069
313.15 K, 101 kPa, x1 = 0.8723	8.338 ± 0.066
313.15 K, 101 kPa, x1 = 0.9579	7.845 ± 0.062
318.15 K, 101.33 kPa, x1 = 0.06032	14.2 ± 0.29
318.15 K, 101.33 kPa, x1 = 0.09973	13.37 ± 0.28
318.15 K, 101.33 kPa, x1 = 0.1931	11.82 ± 0.25
318.15 K, 101.33 kPa, x1 = 0.3054	10.43 ± 0.22
318.15 K, 101.33 kPa, x1 = 0.3986	9.613 ± 0.2
318.15 K, 101.33 kPa, x1 = 0.5124	8.834 ± 0.19
318.15 K, 101.33 kPa, x1 = 0.6012	8.369 ± 0.18
318.15 K, 101.33 kPa, x1 = 0.6899	7.95 ± 0.17
318.15 K, 101.33 kPa, x1 = 0.7926	7.488 ± 0.16
318.15 K, 101.33 kPa, x1 = 0.9004	7.031 ± 0.15
318.15 K, 101.33 kPa, x1 = 0.9614	6.774 ± 0.14

Cc1cc(C)cc(C)c1 + CCC(C)=O
307.35 K, 101.33 kPa
Conditions	viscosity [mPa·s]
x2 = 0.1256	0.549 ± 0.0096
x2 = 0.3266	0.5 ± 0.0092
x2 = 0.4175	0.479 ± 0.0091
x2 = 0.5581	0.443 ± 0.0088
x2 = 0.6213	0.428 ± 0.0086
x2 = 0.7133	0.409 ± 0.0085
x2 = 0.8019	0.389 ± 0.0083
x2 = 0.9035	0.368 ± 0.0082

[Cl-].[Cl-].[Cl-].[Cl-].[Sn+4] + CCCC(=O)OC
101 kPa, x1 = 0.335
Conditions	viscosity [mPa·s]
298.15 K	22.06 ± 0.56
323.15 K	4.849 ± 0.16

CCCCCC(CC)NC(=O)Nc1ccc(C)c(NC(=O)NC(CC)CCCCC)c1 (centres undefined) + CCCCC
Conditions	viscosity [mPa·s]
293.15 K, 100 kPa, x1 = 0.0002	86 ± 6

O=S=O + CCCCCCC
298.15 K, 101 kPa
Conditions	viscosity [mPa·s]
x1 = 0.0265	0.3767 ± 0.0099
x1 = 0.0489	0.3719 ± 0.0098

CC(C)Cc1ccccc1 + CCCCCCCCCCCC
viscosity [mPa·s], 102 kPa
Conditions	x1 = 0.1006	x1 = 0.2004	x1 = 0.2996	x1 = 0.3998	x1 = 0.5	x1 = 0.6001	x1 = 0.6993	x1 = 0.7997	x1 = 0.8998
293.15 K	1.41 ± 0.02	1.35 ± 0.02	1.28 ± 0.02	1.23 ± 0.02	1.17 ± 0.02	1.13 ± 0.02	1.09 ± 0.02	1.05 ± 0.02	1.03 ± 0.02
303.15 K	1.19 ± 0.02	1.14 ± 0.02	1.09 ± 0.02	1.05 ± 0.02	1 ± 0.02	0.97 ± 0.021	0.945 ± 0.021	0.915 ± 0.021	0.896 ± 0.021
313.15 K	1.02 ± 0.02	0.984 ± 0.021	0.949 ± 0.021	0.915 ± 0.021	0.88 ± 0.021	0.848 ± 0.021	0.823 ± 0.021	0.798 ± 0.021	0.781 ± 0.021
323.15 K	0.892 ± 0.021	0.861 ± 0.021	0.83 ± 0.021	0.8 ± 0.021	0.773 ± 0.021	0.749 ± 0.021	0.726 ± 0.021	0.706 ± 0.021	0.691 ± 0.021

CCC(C)CC + CCCCCCCCCCCCCCCC
298 K, 101.33 kPa
Conditions	viscosity [mPa·s]
x1 = 0.1071	2.635 ± 0.033
x1 = 0.2084	2.224 ± 0.028
x1 = 0.3095	1.87 ± 0.024
x1 = 0.4069	1.554 ± 0.02
x1 = 0.5054	1.274 ± 0.017
x1 = 0.6034	1.022 ± 0.014
x1 = 0.7044	0.7813 ± 0.011
x1 = 0.8037	0.5939 ± 0.0086
x1 = 0.902	0.4194 ± 0.0065

CCCCCCCCCCCCCCC + CCCCCCCCCCO
100 kPa, x1 = 0.2565
Conditions	viscosity [mPa·s]
298.2 K	6.68 ± 0.41
308.2 K	4.73 ± 0.29
318.2 K	3.47 ± 0.21
